The values below come from doi:10.1101/761585v1, “A simple method to determine the elimination half-life of drugs displaying noncumulative toxicity” (bioRxiv, 2019).

The nature of data set [1]: Solubility of peptide stocks in saline vs PBS. In kind it is physicochemical. The note with it: 20 mg/mL stocks prepared in physiological saline (0.8% NaCl). The method, then:
For all experiments described in this work, BALB/c mice (6-8 weeks, 20 g) were housed at the Central Animal Facility (CAF, IISc) and fed ad libitum with pellet feed and water. All animal experiments were approved by the Institutional Animal Ethics Committee, IISc (Project No. CAF/Ethics/550/2017). A detailed description of all methods used is provided in the results section. However, it should be noted that 20 mg/mL stocks for both Ω76 and Pexiganan were prepared in physiological saline (0.8% NaCl) and stored at −80 °C. […] These stocks were diluted in saline to obtain the concentration needed for the specific experiment. All intraperitoneal injections were 200 μL in volume, as larger volumes could alter peritoneal elimination kinetics.

Data set [2] relates to BALB/c mice. As to the kind of experiment: Acute toxicity, single intraperitoneal dose, 5-day survival. Format: in vivo, mouse. Particulars: highest single intraperitoneal dose causing no mortality in BALB/c mice observed for 5 days. The method, then:
Acute toxicity comprises the lethal effects of a single dose of a drug, rather than the combined lethal effects of multiple doses of a drug. BALB/c mice (6-8 weeks, 20 g) were injected intraperitoneally with varying doses of Ω76 and Pexiganan, at 2-fold concentration increments. 5 mice per concentration cohort were used. […] Mice treated with both Ω76 and Pexiganan display mortality that increases in a dose-dependent manner. […] However, for TOXHL, determining the maximum nonlethal dose (MND) rather than the LD50 is more important. […] Here, the MND values for Ω76 and Pexiganan are […] (Figure 1A, shown in arrows).
Figure 1. All experiments required to determine the elimination half-life using TOXHL. BALB/c mice (6-8 weeks, 20 g) were used for all experiments. (A) Acute toxicity experiments to determine survival vs. concentration of drug injected intraperitoneally. Determining the maximum nonlethal dose (MND), which is the highest concentration of a drug that causes no mortality, is essential for later noncumulative toxicity experiments. Here, the MND for Pexiganan is 32 mg/kg (blue arrow), and the MND for Ω76 is 64 mg/kg (red arrow). (B) Multi-dose (non)cumulative toxicity determination experiments. Here, mice were intraperitoneally injected with 11 doses of drug (at the MND concentration), at 12 hour intervals over the course of 5 days. […]

Data set [3] has as its system BALB/c mice. Nature of the data set: Multi-dose (non)cumulative toxicity, 11 doses at the MND at 12 hour intervals. In kind it is in vivo, mouse. The method, then: Figure 1. All experiments required to determine the elimination half-life using TOXHL. BALB/c mice (6-8 weeks, 20 g) were used for all experiments. (A) Acute toxicity experiments to determine survival vs. concentration of drug injected intraperitoneally. Determining the maximum nonlethal dose (MND), which is the highest concentration of a drug that causes no mortality, is essential for later noncumulative toxicity experiments. Here, the MND for Pexiganan is 32 mg/kg (blue arrow), and the MND for Ω76 is 64 mg/kg (red arrow). (B) Multi-dose (non)cumulative toxicity determination experiments. Here, mice were intraperitoneally injected with 11 doses of drug (at the MND concentration), at 12 hour intervals over the course of 5 days. All mice treated with Pexiganan died, indicating cumulative toxicity. All mice treated with Ω76 survived, indicating noncumulative toxicity. The difference between the survival outcomes of the Ω76 and Pexiganan cohorts are statistically significant (p=7e-3, Fisher’s test). […] 5 doses at the MND were injected intraperitoneally at Δt of 15, 7.5 and 3 minutes. 67% survival (33% mortality) was observed a Δt = 3 minutes (ΔtM, highlighted in yellow). […] Note that a separate set of similar experiments was described in our previous work[19], but these experiments were only used to assess the toxicity of Ω76.
Cumulative toxicity comprises the lethal effects of multiple doses of drug when injected intraperitoneally at MND concentrations. 10 BALB/c mice (6-8 weeks, 20 g) were treated with 11 doses of Pexiganan, administered at the MND (32 mg/kg) at 12 hour intervals, over the course of 5 days. Despite Pexiganan never exceeding the MND concentration, 100% mortality was observed. […] However, this damage is not reversed within the dosing interval timespan (12 hours), and additional doses only serve to incrementally increase the total damage caused to mice, until a threshold is reached and death occurs.
Figure 2. Peritonea of BALB/c mice (6-8 weeks, 20 g) treated with Ω76 and Pexiganan for (non)cumulative toxicity experiments. […]

“And” between values parts separate entries of the source, which are not always exact repeats. Equal values may be shown once.

Turning to Pexiganan, the “solubility in phosphate buffered saline (PBS) compared with physiological saline” value in data set [1] is reported as “poorer solubility”. The “maximum nonlethal dose (MND)” value in the data set with BALB/c mice [2] was 64 mg/kg and 32 mg/kg. Also, the “survival outcome after 11 doses at the MND” value in the data set with BALB/c mice [3] (10 BALB/c mice, 11 intraperitoneal doses at the MND (Pexiganan 32 mg/kg, Ω76 64 mg/kg), 12 hour intervals over 5 days) is “died”. In addition, in the data set on BALB/c mice [3] (10 BALB/c mice, 11 intraperitoneal doses of Pexiganan at the MND (32 mg/kg), 12 hour intervals over 5 days), the “mortality after 11 doses at the MND” value was 100%. The “autopsy finding, peritoneal organs” value in the data set with BALB/c mice [3] (BALB/c mice, intraperitoneal doses at the MND at 12 hour intervals (Ω76 11 doses of 64 mg/kg over 5 days; Pexiganan 32 mg/kg until mortality)) is “intestinal inflammation is clearly visible”.
